Consider 37 compounds from patent publication US8828992B2, “Substituted azole derivatives, pharmaceutical composition containing the derivatives, and method for treating Parkinson's disease using the same” (priority 2009, dated 2014).

In the first experiment the target is T1, Monoamineoxidase B type human-derived enzyme (Homo sapiens, UniProt P27338).
T1 sequence (P27338 1-520): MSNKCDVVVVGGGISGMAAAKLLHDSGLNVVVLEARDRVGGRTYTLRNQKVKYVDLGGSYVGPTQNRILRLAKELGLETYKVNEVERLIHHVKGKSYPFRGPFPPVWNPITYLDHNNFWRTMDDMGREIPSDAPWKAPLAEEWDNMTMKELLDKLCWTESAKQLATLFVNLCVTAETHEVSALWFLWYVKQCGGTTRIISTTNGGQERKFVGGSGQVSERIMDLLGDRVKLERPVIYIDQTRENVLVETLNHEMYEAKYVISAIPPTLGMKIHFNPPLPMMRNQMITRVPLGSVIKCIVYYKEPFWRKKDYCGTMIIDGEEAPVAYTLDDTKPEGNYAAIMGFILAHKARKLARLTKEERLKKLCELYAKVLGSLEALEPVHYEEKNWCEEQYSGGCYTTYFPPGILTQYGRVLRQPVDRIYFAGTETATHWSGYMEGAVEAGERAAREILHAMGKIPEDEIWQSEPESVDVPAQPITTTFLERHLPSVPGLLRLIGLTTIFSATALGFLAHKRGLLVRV
Kind of experiment: Inhibitory effects on the activity of MAO-B (Amplex Red fluorescence, benzylamine substrate). Type of experiment: biochemical. As to conditions: read-out: Inhibitory effects (%) on the activity of MAO-B. As to the method:
Monoamineoxidase A or B type human-derived enzyme (5 mg/ml) was each diluted with 0.05 M sodium phosphate buffer (pH 7.4) to yield a dilution of 1:200, and then 100 μl of an enzyme buffer containing 2 μl of a compound 1 solution at the corresponding concentration was placed in a test plate (flat-bottom) and incubated for 30 minutes.
100 μl of a working buffer containing 400 μM of Amplex Red reagent, 2 U/ml horseradish peroxidase, and 2 mM substrate (tyramine for MAO-A and benzylamine for MAO-B) in 0.05 M sodium phosphate buffer (pH 7.4) was mixed with a pre-incubated enzyme buffer at 1:1 and measured using fluorescence (EX: 563 nm & EM: 587 nm) for 30 minutes.
Consider `NC(=O)OCc1nc(-c2ccc(OCc3ccccc3)cc2)ns1` [Example 4, carbamic acid 3-(4-benzyloxy-phenyl)-[1,2,4]thiadiazol-5-ylmethyl ester], for which the inhibition at 0.01 µM came to 92%. Still for that read-out and setting: under `CCCOc1ccc(-c2cc(COC(N)=O)on2)cc1` [Example 42, carbamic acid 3-(4-propoxy-phenyl)-isoxazol-5-ylmethyl ester] stands 85.3%. With `CCCCCOc1ccc(-c2cc(COC(N)=O)on2)cc1` [Example 44, carbamic acid 3-(4-pentoxy-phenyl)-isoxazol-5-ylmethyl ester], the inhibition at 0.01 µM was found to be 74.3%. On the same count and under the same terms, under `CCOC(=O)COc1ccc(-c2cc(COC(N)=O)on2)cc1` [Example 47, [4-(5-carbamoyloxymethyl-isoxazol-3-yl)-phenoxy]-acetic acid ethyl ester] stands 41.2%; under `NC(=O)OCCCOc1ccc(-c2cc(COC(N)=O)on2)cc1` [Example 52, carbamic acid 3-[4-(5-carbamoyloxymethyl-isoxazol-3-yl)-phenoxy]-propyl ester], 26.6%; under `NC(=O)OCc1cc(-c2ccc(OCCCCO)cc2)no1` [Example 57, carbamic acid 3-[4-(4-hydroxy-butoxy)-phenyl]-isoxazol-5-ylmethyl ester], 25%. Still for that read-out and setting: under `NC(=O)OCc1cc(-c2ccc(OCCCC(F)(F)F)cc2)no1` [Example 59, carbamic acid 3-[4-(4,4,4-trifluoro-butoxy)-phenyl]-isoxazol-5-ylmethyl ester] stands 97.4%.

The experiment is the same for the next values; noted with them: treatment concentration 10 nM.
Regarding “3-[4-(3-chloro-benzyloxy)-phenyl]-isoxazol-5-ylmethyl ester [Example 20]”, the “Inhibitory effects (%) on the activity of MAO-B” value came to 96.2%. Still for that read-out and setting: under “3-[4-(4-methyl-benzyloxy)-phenyl]-isoxazol-5-ylmethyl ester [Example 28]” stands 87.4%.

Staying with this experiment, now noted: treatment concentration 10 nM; read-out: Inhibitory effects (%) on the activity of MAO-B.
Consider `NC(=O)OCc1cc(-c2ccc(OCc3ccccc3)cc2Cl)no1` [Example 5, carbamic acid 3-(4-benzyloxy-2-chloro-phenyl)-isoxazol-5-ylmethyl ester], for which the inhibition at 0.01 µM came to 88.3%. Regarding `NC(=O)OCc1cc(-c2ccc(OCc3ccccc3)c(Cl)c2)no1` [Example 7, carbamic acid 3-(4-benzyloxy-3-chloro-phenyl)-isoxazol-5-ylmethyl ester], the inhibition at 0.01 µM was 75.9%. As for `NC(=O)OCc1cc(-c2ccc(OCc3ccccc3)c(F)c2)no1` [Example 8, carbamic acid 3-(4-benzyloxy-3-fluoro-phenyl)-isoxazol-5-ylmethyl ester], the inhibition at 0.01 µM is 72.7%.

Consider `CC(Oc1ccc(-c2cc(COC(N)=O)on2)cc1)c1ccccc1` (stereo not shown) [Example 10, carbamic acid 3-[4-(1-phenyl-ethoxy)-phenyl]-isoxazol-5-ylmethyl ester], for which the inhibition at 0.01 µM was found to be 98.2%. Still for that read-out and setting: in the case of `NC(=O)OCc1cc(-c2ccc(OCc3ccc(F)cc3)cc2)no1` [Example 13, carbamic acid 3-[4-(4-fluoro-benzyloxy)-phenyl]-isoxazol-5-ylmethyl ester] it was 102%; in that of `NC(=O)OCc1cc(-c2ccc(OCc3cccc(F)c3F)cc2)no1` [Example 15, carbamic acid 3-[4-(2,3-difluoro-benzyloxy)-phenyl]-isoxazol-5-ylmethyl ester], 96.2%; in that of `NC(=O)OCc1cc(-c2ccc(OCc3cc(F)cc(F)c3)cc2)no1` [Example 16, carbamic acid 3-[4-(3,5-difluoro-benzyloxy)-phenyl]-isoxazol-5-ylmethyl ester], 96.5%. On the same count and under the same terms, under `NC(=O)OCc1cc(-c2ccc(OCc3ccc(F)c(F)c3)cc2)no1` [Example 17, carbamic acid 3-[4-(3,4-difluoro-benzyloxy)-phenyl]-isoxazol-5-ylmethyl ester] stands 96.8%; under `NC(=O)OCc1cc(-c2ccc(OCc3c(F)cc(F)cc3F)cc2)no1` [Example 18, carbamic acid 3-[4-(2,4,6-trifluoro-benzyloxy)-phenyl]-isoxazol-5-ylmethyl ester], 91.5%; under `NC(=O)OCc1cc(-c2ccc(OCc3cccc(C(F)(F)F)c3)cc2)no1` [Example 19, carbamic acid 3-[4-(3-trifluoromethyl-benzyloxy)-phenyl]-isoxazol-5-ylmethyl ester], 94.2%. For the compound `NC(=O)OCc1cc(-c2ccc(OCc3ccccc3Cl)cc2)no1` [Example 21, carbamic acid 3-[4-(2-chloro-benzyloxy)-phenyl]-isoxazol-5-ylmethyl ester], the inhibition at 0.01 µM was determined as 92.9%. The same measure, in the same setting: in the case of `NC(=O)OCc1cc(-c2ccc(OCc3ccc(Cl)cc3)cc2)no1` [Example 22, carbamic acid 3-[4-(4-chloro-benzyloxy)-phenyl]-isoxazol-5-ylmethyl ester] it was 86%; in that of `NC(=O)OCc1cc(-c2ccc(OCc3c(Cl)cccc3Cl)cc2)no1` [Example 23, carbamic acid 3-[4-(2,6-dichlorobenzyloxy)-phenyl]-isoxazol-5-ylmethyl ester], 92.7%.

On to `NC(=O)OCc1cc(-c2ccc(OCc3cc(Cl)ccc3Cl)cc2)no1` [Example 24, carbamic acid 3-[4-(2,5-di-chloro-benzyloxy)-phenyl]-isoxazol-5-ylmethyl ester], for which the inhibition at 0.01 µM turned out to be 83.3%. The same measure, in the same setting: under `NC(=O)OCc1cc(-c2ccc(OCc3cc(F)ccc3Cl)cc2)no1` [Example 25, carbamic acid 3-[4-(2-chloro-5-fluoro-benzyloxy)-phenyl]-isoxazol-5-ylmethyl ester] stands 83.2%. The same measure, in the same setting: in the case of `NC(=O)OCc1cc(-c2ccc(OCc3cccc([N+](=O)[O-])c3)cc2)no1` [Example 26, carbamic acid 3-[4-(3-nitro-benzyloxy)-phenyl]-isoxazol-5-ylmethyl ester] it was 87.3%. Same read-out and setting: in the case of `COC(=O)c1ccc(COc2ccc(-c3cc(COC(N)=O)on3)cc2)cc1` [Example 27, 4-[4-(5-carbamoyloxymethyl-isoxazol-3-yl)-phenoxymethyl]-benzoic acid methyl ester] it was 75.2%; in that of `Cc1ccccc1COc1ccc(-c2cc(COC(N)=O)on2)cc1` [Example 29, carbamic acid 3-[4-(2-methyl-benzyloxy)-phenyl]-isoxazol-5-ylmethyl ester], 80.3%. With `COc1cccc(COc2ccc(-c3cc(COC(N)=O)on3)cc2)c1` [Example 30, Carbamic acid 3-[4-(3-methoxy-benzyloxy)-phenyl]-isoxazol-5-ylmethyl ester], the inhibition at 0.01 µM is 90.2%. For the compound `CC(C)c1ccc(COc2ccc(-c3cc(COC(N)=O)on3)cc2)cc1` [Example 32, Carbamic acid 3-[4-(4-isopropyl-benzyloxy)-phenyl]-isoxazol-5-ylmethyl ester], the inhibition at 0.01 µM was 84.4%. Turning to `NC(=O)OCc1cc(-c2ccc(OCc3cccc(C=O)c3)cc2)no1` [Example 35, carbamic acid 3-[4-(3-formyl-benzyloxy)-phenyl]-isoxazol-5-ylmethyl ester], the inhibition at 0.01 µM worked out at 90.4%. With `NC(=O)OCc1cc(-c2ccc(OCc3ccc(C=O)cc3)cc2)no1` [Example 36, carbamic acid 3-[4-(4-formyl-benzyloxy)-phenyl]-isoxazol-5-ylmethyl ester], the inhibition at 0.01 µM came to 90.1%. Same read-out and setting: in the case of `NC(=O)OCc1cc(-c2ccc(OCc3nc4ccccc4s3)cc2)no1` [Example 64, Carbamic acid 3-[4-(benzothiazol-2-ylmethoxy)-phenyl]-isoxazol-5-ylmethyl ester] it was 32.8%; in that of `COc1c(C)cc(COc2ccc(-c3cc(COC(N)=O)on3)cc2)nc1C` [Example 68, Carbamic acid 3-[4-(5-methoxy-4,6-dimethyl-pyridin-2-ylmethoxy)-phenyl]-isoxazol-5-ylmethyl ester], 63.4%. As to `NC(=O)OCc1cc(-c2ccc(OCc3ccc4ccccc4n3)cc2)no1` [Example 70, Carbamic acid 3-[4-(quinolin-2-ylmethoxy)-phenyl]-isoxazol-5-ylmethyl ester], the inhibition at 0.01 µM was 27.1%.

`COC(=O)c1ccc(COc2ccc(-c3cc(COC(N)=O)on3)cc2)o1` [Example 73, 5-[4-(5-carbamoyloxymethyl-isoxazol-3-yl)-phenoxymethyl]-furan-2-carboxylic acid methyl ester]: the inhibition at 0.01 µM turned out to be 58.1%. Same read-out and setting: in the case of `NC(=O)OCc1cc(-c2ccc(NCc3ccc(F)cc3)cc2)no1` [Example 76, Carbamic acid 3-[4-(4-fluoro-benzylamino)-phenyl]-isoxazol-5-ylmethyl ester] it was 87%.

Staying with this experiment, now noted: treatment concentration 100 nM.
For the compound `NC(=O)OCc1cc(-c2ccc(OCc3cccc(C(F)(F)F)c3)cc2)no1` [Example 31, Carbamic acid 3-[4-(3-trifluoromethyl-benzyloxy)-phenyl]-isoxazol-5-ylmethyl ester], the inhibition at 0.1 µM turned out to be 96.2%.
